Reference: US10287255B2, “Compounds as histone deacetylase 6 inhibitors and pharmaceutical compositions comprising the same” (CHONG KUN DANG PHARMACEUTICAL CORP., priority 2014, dated 2019)

Tests used:
human recombinant HDAC1 = biological target: T1, human recombinant HDAC1 (Homo sapiens, UniProt Q13547); assay: HDAC1 enzyme activity inhibition assay (in vitro, fluorimetric); format: biochemical; details: human recombinant HDAC1, fluorimetric kit, 30° C. 60 minutes
T1 construct: purchased Enzo Life Science BML-SE456
T1 sequence (Q13547 whole entry): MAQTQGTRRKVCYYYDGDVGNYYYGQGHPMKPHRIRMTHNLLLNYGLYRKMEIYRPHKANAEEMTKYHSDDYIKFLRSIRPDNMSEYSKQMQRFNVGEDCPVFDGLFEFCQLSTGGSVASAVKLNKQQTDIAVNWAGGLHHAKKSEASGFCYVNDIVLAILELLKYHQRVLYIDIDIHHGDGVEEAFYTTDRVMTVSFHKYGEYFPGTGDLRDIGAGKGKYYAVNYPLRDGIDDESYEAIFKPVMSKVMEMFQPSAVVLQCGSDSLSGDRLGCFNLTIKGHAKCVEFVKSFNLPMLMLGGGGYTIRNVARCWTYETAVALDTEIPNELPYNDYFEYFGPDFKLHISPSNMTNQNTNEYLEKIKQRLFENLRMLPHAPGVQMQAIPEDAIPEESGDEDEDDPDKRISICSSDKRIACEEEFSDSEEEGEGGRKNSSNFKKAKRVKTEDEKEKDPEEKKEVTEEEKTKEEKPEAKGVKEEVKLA
Method in brief: (§1)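 Human recombinant enzyme (0.3 μg for HDAC1) reacted with 10 μM Fluor de Lys-SIRT1 substrate and 5-fold compound dilutions at 30 °C for 60 min, then developer for 30 min. Fluorescence read at Ex 360/Em 460; IC50 calculated. HDAC6 run by the same protocol.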

human recombinant HDAC6 = biological target: T2, human recombinant HDAC6 (Homo sapiens, UniProt Q9UBN7); assay: HDAC6 enzyme activity inhibition assay (in vitro, fluorimetric); format: biochemical; details: for HDAC6 selectivity (fold): HDAC6 selectivity over HDAC1; for IC50: human recombinant HDAC6, fluorimetric kit, same protocol as HDAC1
T2 construct: purchased Calbiochem 382180
T2 sequence (Q9UBN7 1-1215): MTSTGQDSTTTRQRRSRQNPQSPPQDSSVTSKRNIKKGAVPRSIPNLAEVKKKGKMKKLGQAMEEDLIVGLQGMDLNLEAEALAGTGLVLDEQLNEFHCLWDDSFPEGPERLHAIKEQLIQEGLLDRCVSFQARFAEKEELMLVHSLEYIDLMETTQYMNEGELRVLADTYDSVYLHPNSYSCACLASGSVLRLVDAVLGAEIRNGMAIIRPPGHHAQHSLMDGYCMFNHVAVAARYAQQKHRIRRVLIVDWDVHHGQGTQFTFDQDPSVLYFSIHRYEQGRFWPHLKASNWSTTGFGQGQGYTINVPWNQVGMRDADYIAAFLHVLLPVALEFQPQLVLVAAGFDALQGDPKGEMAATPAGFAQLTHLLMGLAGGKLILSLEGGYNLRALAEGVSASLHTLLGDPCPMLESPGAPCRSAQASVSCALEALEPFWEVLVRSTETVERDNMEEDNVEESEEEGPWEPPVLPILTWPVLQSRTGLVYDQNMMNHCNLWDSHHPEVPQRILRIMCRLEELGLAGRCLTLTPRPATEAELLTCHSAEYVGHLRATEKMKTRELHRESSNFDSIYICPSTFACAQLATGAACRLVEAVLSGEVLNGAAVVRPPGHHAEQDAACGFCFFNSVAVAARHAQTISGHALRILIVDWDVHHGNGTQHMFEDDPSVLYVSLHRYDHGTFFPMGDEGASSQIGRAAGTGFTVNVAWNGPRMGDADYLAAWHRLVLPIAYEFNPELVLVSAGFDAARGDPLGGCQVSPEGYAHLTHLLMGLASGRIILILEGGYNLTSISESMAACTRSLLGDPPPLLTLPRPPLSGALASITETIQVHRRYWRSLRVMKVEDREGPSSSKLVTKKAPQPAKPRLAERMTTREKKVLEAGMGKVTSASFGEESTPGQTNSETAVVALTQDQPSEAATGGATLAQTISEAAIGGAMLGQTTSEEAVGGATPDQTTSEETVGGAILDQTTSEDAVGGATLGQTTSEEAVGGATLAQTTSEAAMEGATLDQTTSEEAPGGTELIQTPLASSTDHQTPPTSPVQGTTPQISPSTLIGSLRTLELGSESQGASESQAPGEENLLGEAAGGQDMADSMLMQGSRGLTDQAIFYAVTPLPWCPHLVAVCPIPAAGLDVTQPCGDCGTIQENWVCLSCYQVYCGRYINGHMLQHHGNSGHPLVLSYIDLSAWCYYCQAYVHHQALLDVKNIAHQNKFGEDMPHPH
Method in brief: as §1

IC50 (human recombinant HDAC1)	HDAC6 selectivity (fold) (human recombinant HDAC6)	IC50 (human recombinant HDAC6)	SMILES
> 10 µM	–	0.083 µM	C[C@@H]1CN(Cc2ccc(C(=O)NO)cc2)C[C@H](C)N1Cc1cccc(CN2CCCCC2)c1 [Compound 382, 4-(((3R,5S)-3,5-dimethyl-4-(3-(piperidin-1-ylmethyl)benzyl)piperazin-1-yl)methyl)-N-hydroxybenzamide]
5.6 µM	174 fold	0.032 µM	Cc1nccn1-c1ccccc1CN1C[C@@H](C)N(Cc2ccc(C(=O)NO)cc2)[C@@H](C)C1 [Compound 305, 4-(((2S,6R)-2,6-dimethyl-4-(2-(2-methyl-1H-imidazol-1-yl)benzyl)piperazin-1-yl)methyl)-N-hydroxybenzamide]
11.8 µM	407 fold	0.029 µM	C[C@@H]1CN(Cc2ccc(C(=O)NO)cc2)C[C@H](C)N1C(=O)c1cccc(Cl)c1 [Compound 121, 4-(((3R,5S)-4-(3-chlorobenzoyl)-3,5-dimethylpiperazin-1-yl)methyl)-N-hydroxybenzamide]
1 µM	22 fold	0.046 µM	C[C@@H]1CN(Cc2ccc(C(=O)NO)cc2)C[C@H](C)N1C(=O)c1cccc(CN2CCCC2)c1 [Compound 423, 4-(((3R,5S)-3,5-dimethyl-4-(3-(pyrrolidin-1-ylmethyl)benzoyl)piperazin-1-yl)methyl)-N-hydroxybenzamide]
2.3 µM	8 fold	0.28 µM	C[C@@H]1CN(Cc2ccc(-n3cnnc3)cc2)C[C@H](C)N1Cc1ccc(C(=O)NO)cc1 [Compound 304, 4-(((2S,6R)-4-(4-(4H-1,2,4-triazol-4-yl)benzyl)-2,6-dimethylpiperazin-1-yl)methyl)-N-hydroxybenzamide]
14.2 µM	75 fold	0.188 µM	C[C@@H]1CN(Cc2ccc(C(=O)NO)cc2)C[C@H](C)N1Cc1cccc(Cl)c1C(F)(F)F [Compound 267, 4-(((3R,5S)-4-(3-chloro-2-(trifluoromethyl)benzyl)-3,5-dimethylpiperazin-1-yl)methyl)-N-hydroxybenzamide]
3.4 µM	81 fold	0.042 µM	C[C@@H]1CN(Cc2ccc(C(=O)NO)cc2)C[C@H](C)N1C(=O)c1cccc(CN2CCN(C)CC2)c1 [Compound 432, 4-(((3R,5S)-3,5-dimethyl-4-(3-((4-methylpiperazin-1-yl)methyl)benzoyl)piperazin-1-yl)methyl)-N-hydroxybenzamide]
> 10 µM	>3333 fold	0.003 µM	C[C@@H]1CN(Cc2ccc(C(=O)NO)cc2)C[C@H](C)N1C(=O)c1ccco1 [Compound 125, 4-(((3R,5S)-4-(furan-2-carbonyl)-3,5-dimethylpiperazin-1-yl)methyl)-N-hydroxybenzamide]
11.2 µM	78 fold	0.144 µM	C[C@@H]1CN(Cc2ccccc2)C[C@H](C)N1Cc1ccc(C(=O)NO)cc1 [Compound 081, 4-(((2S,6R)-4-benzyl-2,6-dimethylpiperazin-1-yl)methyl)-N-hydroxybenzamide]
5.5 µM	15 fold	0.369 µM	C[C@@H]1CN(Cc2cccc(C(F)(F)F)c2)C[C@H](C)N1Cc1ccc(C(=O)NO)cc1 [Compound 298, 4-(((2S,6R)-2,6-dimethyl-4-(3-(trifluoromethyl)benzyl)piperazin-1-yl)methyl)-N-hydroxybenzamide]
8.5 µM	146 fold	0.058 µM	C[C@@H]1CN(Cc2ccc(C(=O)NO)cc2)C[C@H](C)N1C(=O)c1cccc(CN2CCN(S(C)(=O)=O)CC2)c1 [Compound 444, 4-(((3R,5S)-3,5-dimethyl-4-(3-((4-(methylsulfonyl)piperazin-1-yl)methyl)benzoyl)piperazin-1-yl)methyl)-N-hydroxybenzamide]
> 10 µM	>35 fold	0.28 µM	C[C@@H]1CN(CC2CCC(C(=O)NO)CC2)C[C@H](C)N1Cc1ccccc1 (stereo partly drawn) [Compound 822, 4-(((3R,5S)-4-benzyl-3,5-dimethylpiperazin-1-yl)methyl)-N-hydroxycyclohexane-1-carboxamide]
15.5 µM	2584 fold	0.006 µM	C[C@@H]1CN(Cc2ccc(C(=O)NO)cc2)C[C@H](C)N1C(=O)c1ccccn1 [Compound 123, 4-(((3R,5S)-3,5-dimethyl-4-picolinoylpiperazin-1-yl)methyl)-N-hydroxybenzamide]
> 10 µM	>94 fold	0.106 µM	C[C@@H]1CN(Cc2ccc(C(=O)NO)cc2)C[C@H](C)N1Cc1cccc(CN2CC(F)(F)C2)c1 [Compound 384, 4-(((3R,5S)-4-(3-((3,3-difluoroazetidin-1-yl)methyl)benzyl)-3,5-dimethylpiperazin-1-yl)methyl)-N-hydroxybenzamide]
10.4 µM	23 fold	0.455 µM	C[C@@H]1CN(C(=O)c2ccccc2-c2ccoc2)C[C@H](C)N1Cc1ccc(C(=O)NO)cc1 [Compound 277, 4-(((2S,6R)-4-(2-(furan-3-yl)benzoyl)-2,6-dimethylpiperazin-1-yl)methyl)-N-hydroxybenzamide]
5.1 µM	15 fold	0.351 µM	C[C@@H]1CN(Cc2ccccc2C2=CCOCC2)C[C@H](C)N1Cc1ccc(C(=O)NO)cc1 [Compound 351, 4-(((2S,6R)-4-(2-(3,6-dihydro-2H-pyran-4-yl)benzyl)-2,6-dimethylpiperazin-1-yl)methyl)-N-hydroxybenzamide]
1.7 µM	4 fold	0.406 µM	C[C@@H]1CN(Cc2cccc(-c3ccoc3)c2)C[C@H](C)N1Cc1ccc(C(=O)NO)cc1 [Compound 396, 4-(((2S,6R)-4-(3-(furan-3-yl)benzyl)-2,6-dimethylpiperazin-1-yl)methyl)-N-hydroxybenzamide]
12.5 µM	<13 fold	> 1 µM	CC(C)CCN1C[C@@H](C)N(Cc2ccc(C(=O)NO)cc2)[C@@H](C)C1 [Compound 271, N-hydroxy-4-(((2S,6R)-4-isopentyl-2,6-dimethylpiperazin-1-yl)methyl)benzamide]
8.5 µM	354 fold	0.024 µM	C[C@@H]1CN(Cc2ccc(C(=O)NO)cc2)C[C@H](C)N1Cc1cccc(-n2cccc2)c1 [Compound 255, 4-(((3R,5S)-4-(3-(1H-pyrrol-1-yl)benzyl)-3,5-dimethylpiperazin-1-yl)methyl)-N-hydroxybenzamide]
4.4 µM	44 fold	0.1 µM	CCN1CCN(Cc2cccc(CN3[C@H](C)CN(Cc4ccc(C(=O)NO)cc4)C[C@@H]3C)c2)CC1 [Compound 429, 4-(((3R,5S)-4-(3-((4-ethylpiperazin-1-yl)methyl)benzyl)-3,5-dimethylpiperazin-1-yl)methyl)-N-hydroxybenzamide]
> 10 µM	>1000 fold	0.01 µM	C[C@@H]1CN(Cc2ccc(C(=O)NO)cc2F)C[C@H](C)N1Cc1cccc(CN2CCOCC2)c1 [Compound 696, 4-(((3R,5S)-3,5-dimethyl-4-(3-(morpholinomethyl)benzyl)piperazin-1-yl)methyl)-3-fluoro-N-hydroxybenzamide]

SMILES	IC50 (human recombinant HDAC1)	HDAC6 selectivity (fold) (human recombinant HDAC6)	IC50 (human recombinant HDAC6)
CCN1CC=C(c2ccccc2CN2[C@H](C)CN(Cc3ccc(C(=O)NO)cc3)C[C@@H]2C)CC1 [Compound 485, 4-(((3R,5S)-4-(2-(1-ethyl-1,2,3,6-tetrahydropyridin-4-yl)benzyl)-3,5-dimethylpiperazin-1-yl)methyl)-N-hydroxybenzamide]	14.7 µM	101 fold	0.145 µM
C[C@@H]1CN(Cc2ccc(C(=O)NO)cc2)C[C@H](C)N1C(=O)Cc1ccccc1 [Compound 146, 4-(((3R,5S)-3,5-dimethyl-4-(2-phenylacetyl)piperazin-1-yl)methyl)-N-hydroxybenzamide]	6 µM	314 fold	0.019 µM
